From publication PMC3230782 (Peptides, 2011)

Key:
[1] = earlier work; 30 (EMTPVNPG); 29 (AFPep); cited from earlier work
[2] = system: estrogen-stimulated growth of the immature mouse uterus; settings: 30 (EMTPVNPG), 29 (AFPep); cited from earlier work
[3] = system: estrogen-stimulated growth of the immature mouse uterus; experiment: immature mouse uterine growth inhibition assay; format: in vivo, mouse (Swiss Webster female); settings: for effect on the growth inhibition activity of AFPep when combined: combination with AFPep (Figure 2A, 2C); for dose-response behaviour of inhibition of estrogen-stimulated uterine growth: peptide alone, range of doses i.p. (Figure 1)

Substance	shelf life [1]	dose-response behaviour in anti-estrotrophic assay (earlier work) [2]	effect on the growth inhibition activity of AFPep when combined [3]	dose-response behaviour of inhibition of estrogen-stimulated uterine growth [3]
EMTPVNPG	very short shelf life	biphasic dose-response curve		
cyclo[EKTOVGOGN] FS (lariat or depsi)			enhanced the activity of AFPep	no activity at any dose
cyclo[EKTOVNOGN] FS (lariat or depsi)			decreased the activity of AFPep	little activity at any dose
